Experimental data: ChEMBL document CHEMBL1150694, “Jatrophane diterpenoids from Euphorbia mongolica as modulators of the multidrug resistance of L5128 mouse lymphoma cells” (J Nat Prod, 2003)

How the values were obtained:
Format in all cases: cell-based
[1] = molecular target: T1, ATP-dependent translocase ABCB1 (Homo sapiens, UniProt P08183); experiment: Inhibition of human MDR1 expressed in mouse L5178 cells assessed as fluorescence activity at 112 uM by rhodamine 123 exclusion test; conditions: l5178, 112 µM
[2] = molecular target: T1, ATP-dependent translocase ABCB1; experiment: Inhibition of human MDR1 expressed in mouse L5178 cells assessed as fluorescence activity at 11.2 uM by rhodamine 123 exclusion test; conditions: l5178, 11.2 µM
[3] = molecular target: T1, ATP-dependent translocase ABCB1; experiment: Inhibition of human MDR1 expressed in mouse L5178 cells assessed as fluorescence activity ratio at 11.2 uM by rhodamine 123 exclusion test relative to wild type mouse L5178 cells; conditions: l5178, 11.2 µM
[4] = molecular target: T1, ATP-dependent translocase ABCB1; experiment: Inhibition of human MDR1 expressed in mouse L5178 cells assessed as fluorescence activity ratio at 112 uM by rhodamine 123 exclusion test relative to wild type mouse L5178 cells; conditions: l5178, 112 µM
[5] = molecular target: T1, ATP-dependent translocase ABCB1; experiment: Inhibition of human MDR1 expressed in mouse L5178 cells assessed as fluorescence activity at 23 uM by rhodamine 123 exclusion test; conditions: l5178, 23 µM

T1 sequence (P08183 whole entry): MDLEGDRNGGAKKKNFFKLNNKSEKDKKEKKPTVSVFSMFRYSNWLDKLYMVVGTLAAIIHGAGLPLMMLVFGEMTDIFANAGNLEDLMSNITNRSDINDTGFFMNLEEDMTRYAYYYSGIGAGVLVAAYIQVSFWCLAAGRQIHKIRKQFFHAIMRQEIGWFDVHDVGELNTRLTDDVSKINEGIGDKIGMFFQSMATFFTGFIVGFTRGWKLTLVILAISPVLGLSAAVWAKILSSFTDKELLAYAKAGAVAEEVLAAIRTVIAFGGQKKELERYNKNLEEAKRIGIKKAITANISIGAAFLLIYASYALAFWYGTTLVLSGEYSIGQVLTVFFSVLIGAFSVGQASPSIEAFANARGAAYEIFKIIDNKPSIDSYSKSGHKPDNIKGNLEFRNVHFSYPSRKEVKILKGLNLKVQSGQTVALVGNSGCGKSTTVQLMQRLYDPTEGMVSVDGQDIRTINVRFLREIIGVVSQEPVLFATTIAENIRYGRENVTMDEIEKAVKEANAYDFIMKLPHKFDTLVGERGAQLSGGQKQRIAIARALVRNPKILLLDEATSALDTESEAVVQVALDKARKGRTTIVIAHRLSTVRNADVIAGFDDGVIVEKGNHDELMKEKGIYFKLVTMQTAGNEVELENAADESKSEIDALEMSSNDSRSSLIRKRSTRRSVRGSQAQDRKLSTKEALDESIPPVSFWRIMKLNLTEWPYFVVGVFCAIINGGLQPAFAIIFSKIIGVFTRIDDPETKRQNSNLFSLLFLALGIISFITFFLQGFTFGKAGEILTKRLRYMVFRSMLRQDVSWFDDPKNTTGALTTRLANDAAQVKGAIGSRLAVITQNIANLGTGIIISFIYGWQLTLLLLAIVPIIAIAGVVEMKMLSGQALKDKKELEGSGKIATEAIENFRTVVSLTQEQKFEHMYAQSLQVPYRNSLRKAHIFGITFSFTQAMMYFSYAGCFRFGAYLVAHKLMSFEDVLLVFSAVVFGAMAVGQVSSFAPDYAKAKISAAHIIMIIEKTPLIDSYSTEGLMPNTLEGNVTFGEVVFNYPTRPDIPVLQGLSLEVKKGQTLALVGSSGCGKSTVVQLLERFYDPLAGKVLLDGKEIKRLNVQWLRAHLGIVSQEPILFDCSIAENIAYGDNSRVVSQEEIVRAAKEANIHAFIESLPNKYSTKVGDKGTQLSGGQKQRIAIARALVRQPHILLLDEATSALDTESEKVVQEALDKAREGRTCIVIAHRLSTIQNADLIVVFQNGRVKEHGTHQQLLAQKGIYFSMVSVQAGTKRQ

| Compound | Flu intensity [1] | Flu intensity [2] | Ratio [3] | Ratio [4] | Flu intensity [5] |
| --- | --- | --- | --- | --- | --- |
| C=C1[C@H](OC(C)=O)[C@@H](OC(C)=O)[C@@H](OC(C)=O)C(C)(C)/C=C/[C@H](C)C(=O)[C@@]2(OC(C)=O)C[C@H](C)[C@H](OC(C)=O)[C@@H]2[C@H]1OC(=O)c1ccccc1 (relative stereo) | 354.21 | 33.71 | 2.79 | 29.29 | – |
| C=C1[C@H](OC(C)=O)[C@H]2[C@@H](OC(=O)c3ccccc3)[C@@H](C)C[C@]2(O)C(=O)[C@@H](C)/C=C/C(C)(C)C(=O)[C@H](OC(C)=O)[C@H]1OC(C)=O (relative stereo) | 277.08 | 148.64 | 12.29 | 22.92 | – |
| C=C1[C@H](OC(C)=O)[C@@H](OC(C)=O)[C@@H](OC(C)=O)C(C)(C)/C=C/[C@H](C)C(=O)[C@@]2(OC(C)=O)C[C@H](C)[C@H](OC(=O)c3ccccc3)[C@@H]2[C@H]1OC(C)=O (relative stereo) | 217.81 | 31.46 | 2.6 | 18.02 | – |
| COc1ccc(CCN(C)CCCC(C#N)(c2ccc(OC)c(OC)c2)C(C)C)cc1OC (stereo not drawn) | – | – | – | – | 158.9 |
